Measured values reported in the supplement of paper PMC10307832.

Columns and labels:
Experiment in all cases: relative viability (nuclei count vs DMSO), 5 days (fraction); higher = more cells survive
[1] = system: EMC-BAC-2
Method in brief: (§1)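 Lung cancer cell lines were seeded in 1536-well plates and dosed by pin tool the next day, with either a single drug or a fixed anchor-drug dose combined with five library-drug doses (not always all listed) spaced in √10 steps. Five days later, one step fixed the cells and stained their nuclei (final 0.05% Triton X-100, 1% formaldehyde, 1 ug/ml Hoechst), and nuclei were counted on 4× images. Relative viability is the nuclei count in treated wells divided by the count in vehicle wells, and each value is the median of duplicate plates.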

[2] = system: EPLC-272H
Method in brief: as §1

[3] = system: H3255
Method in brief: as §1

[4] = system: HOP-62
Method in brief: as §1

[5] = system: LCLC-97TM1
Method in brief: as §1

[6] = system: LXF-289
Method in brief: as §1

[7] = system: NCI-H1563
Method in brief: as §1

[8] = system: NCI-H1650
Method in brief: as §1

[9] = system: NCI-H1915
Method in brief: as §1

[10] = system: NCI-H1993
Method in brief: as §1

[11] = system: NCI-H2009
Method in brief: as §1

[12] = system: NCI-H2023
Method in brief: as §1

[13] = system: NCI-H2085
Method in brief: as §1

[14] = system: NCI-H2126
Method in brief: as §1

[15] = system: NCI-H2342
Method in brief: as §1

[16] = system: NCI-H2347
Method in brief: as §1

[17] = system: NCI-H322M
Method in brief: as §1

[18] = system: NCI-H647
Method in brief: as §1

[19] = system: NCI-H661
Method in brief: as §1

[20] = system: NCI-H727
Method in brief: as §1

[21] = system: PC-14
Method in brief: as §1

[22] = system: SK-LU-1
Method in brief: as §1

[23] = system: SW 1573
Method in brief: as §1

C=C1C(=O)O[C@@H](CCCCCCCC)[C@@H]1C(=O)O [C-75] + COc1cccc2cc(-c3nc([C@H]4CC[C@H](C(=O)O)CC4)n4ncnc(N)c34)[nH]c12 [OSI-027] (partner 0.5 µM)
relative viability ([1]; first compound 0.08 µM): 0.416 | relative viability ([1]; first compound 0.253 µM): 0.385 | relative viability ([1]; first compound 0.8 µM): 0.384 | relative viability ([1]; first compound 2.53 µM): 0.269 | relative viability ([1]; first compound 8 µM): 0.341 | relative viability ([2]; first compound 0.08 µM): 0.271 | relative viability ([2]; first compound 0.253 µM): 0.302 | relative viability ([2]; first compound 0.8 µM): 0.278 | relative viability ([2]; first compound 2.53 µM): 0.227 | relative viability ([2]; first compound 8 µM): 0.235 | relative viability ([3]; first compound 0.08 µM): 0.589 | relative viability ([3]; first compound 0.253 µM): 0.7 | relative viability ([3]; first compound 0.8 µM): 0.481 | relative viability ([3]; first compound 2.53 µM): 0.562 | relative viability ([3]; first compound 8 µM): 0.633 | relative viability ([4]; first compound 0.08 µM): 0.816 | relative viability ([4]; first compound 0.253 µM): 0.825 | relative viability ([4]; first compound 0.8 µM): 0.865 | relative viability ([4]; first compound 2.53 µM): 0.738 | relative viability ([4]; first compound 8 µM): 0.705 | relative viability ([5]; first compound 0.08 µM): 0.554 | relative viability ([5]; first compound 0.253 µM): 0.636 | relative viability ([5]; first compound 0.8 µM): 0.543 | relative viability ([5]; first compound 2.53 µM): 0.192 | relative viability ([5]; first compound 8 µM): 0.479 | relative viability ([6]; first compound 0.08 µM): 0.844 | relative viability ([6]; first compound 0.253 µM): 0.758 | relative viability ([6]; first compound 0.8 µM): 0.719 | relative viability ([6]; first compound 2.53 µM): 0.642 | relative viability ([6]; first compound 8 µM): 0.713 | relative viability ([7]; first compound 0.08 µM): 0.806 | relative viability ([7]; first compound 0.253 µM): 0.856 | relative viability ([7]; first compound 0.8 µM): 0.791 | relative viability ([7]; first compound 2.53 µM): 0.718 | relative viability ([7]; first compound 8 µM): 0.79 | relative viability ([8]; first compound 0.08 µM): 0.743 | relative viability ([8]; first compound 0.253 µM): 0.856 | relative viability ([8]; first compound 2.53 µM): 0.442 | relative viability ([8]; first compound 8 µM): 0.851 | relative viability ([9]; first compound 0.08 µM): 0.656 | relative viability ([9]; first compound 0.253 µM): 0.588 | relative viability ([9]; first compound 0.8 µM): 0.61 | relative viability ([9]; first compound 2.53 µM): 0.382 | relative viability ([9]; first compound 8 µM): 0.588 | relative viability ([10]; first compound 0.08 µM): 0.558 | relative viability ([10]; first compound 0.253 µM): 0.61 | relative viability ([10]; first compound 0.8 µM): 0.491 | relative viability ([10]; first compound 2.53 µM): 0.539 | relative viability ([10]; first compound 8 µM): 0.589 | relative viability ([11]; first compound 0.08 µM): 0.675 | relative viability ([11]; first compound 0.253 µM): 0.686 | relative viability ([11]; first compound 0.8 µM): 0.567 | relative viability ([11]; first compound 2.53 µM): 0.545 | relative viability ([11]; first compound 8 µM): 0.426 | relative viability ([12]; first compound 0.08 µM): 0.455 | relative viability ([12]; first compound 0.253 µM): 0.558 | relative viability ([12]; first compound 0.8 µM): 0.34 | relative viability ([12]; first compound 2.53 µM): 0.415 | relative viability ([12]; first compound 8 µM): 0.32 | relative viability ([13]; first compound 0.08 µM): 0.882 | relative viability ([13]; first compound 0.253 µM): 0.883 | relative viability ([13]; first compound 0.8 µM): 0.689 | relative viability ([13]; first compound 2.53 µM): 0.757 | relative viability ([13]; first compound 8 µM): 0.73 | relative viability ([14]; first compound 0.08 µM): 0.762 | relative viability ([14]; first compound 0.253 µM): 0.757 | relative viability ([14]; first compound 0.8 µM): 0.707 | relative viability ([14]; first compound 2.53 µM): 0.744 | relative viability ([14]; first compound 8 µM): 0.66 | relative viability ([15]; first compound 0.08 µM): 0.582 | relative viability ([15]; first compound 0.253 µM): 0.656 | relative viability ([15]; first compound 0.8 µM): 0.582 | relative viability ([15]; first compound 2.53 µM): 0.628 | relative viability ([15]; first compound 8 µM): 0.591 | relative viability ([16]; first compound 0.08 µM): 0.408 | relative viability ([16]; first compound 0.253 µM): 0.523 | relative viability ([16]; first compound 0.8 µM): 0.44 | relative viability ([16]; first compound 8 µM): 0.478 | relative viability ([17]; first compound 0.08 µM): 0.543 | relative viability ([17]; first compound 0.253 µM): 0.7 | relative viability ([17]; first compound 0.8 µM): 0.583 | relative viability ([17]; first compound 2.53 µM): 0.478 | relative viability ([17]; first compound 8 µM): 0.588 | relative viability ([18]; first compound 0.08 µM): 0.697 | relative viability ([18]; first compound 0.253 µM): 0.603 | relative viability ([18]; first compound 0.8 µM): 0.522 | relative viability ([18]; first compound 2.53 µM): 0.474 | relative viability ([18]; first compound 8 µM): 0.574 | relative viability ([19]; first compound 0.08 µM): 0.697 | relative viability ([19]; first compound 0.253 µM): 0.71 | relative viability ([19]; first compound 0.8 µM): 0.72 | relative viability ([19]; first compound 2.53 µM): 0.635 | relative viability ([19]; first compound 8 µM): 0.736 | relative viability ([20]; first compound 0.08 µM): 0.893 | relative viability ([20]; first compound 0.253 µM): 0.894 | relative viability ([20]; first compound 0.8 µM): 0.575 | relative viability ([20]; first compound 8 µM): 0.98 | relative viability ([21]; first compound 0.08 µM): 0.774 | relative viability ([21]; first compound 0.253 µM): 0.958 | relative viability ([21]; first compound 0.8 µM): 0.687 | relative viability ([21]; first compound 2.53 µM): 0.767 | relative viability ([21]; first compound 8 µM): 0.856 | relative viability ([22]; first compound 0.08 µM): 0.348 | relative viability ([22]; first compound 0.253 µM): 0.379 | relative viability ([22]; first compound 0.8 µM): 0.416 | relative viability ([22]; first compound 2.53 µM): 0.319 | relative viability ([22]; first compound 8 µM): 0.308 | relative viability ([23]; first compound 0.08 µM): 0.705 | relative viability ([23]; first compound 0.253 µM): 0.709 | relative viability ([23]; first compound 0.8 µM): 0.555 | relative viability ([23]; first compound 2.53 µM): 0.634 | relative viability ([23]; first compound 8 µM): 0.519
